The test system of test [1] is Escherichia coli 205. Description: systemic infection in mice, survival, Escherichia coli 205. The following applies: fifth day. The class given is in vivo. How it is done: (§1) The combination substances A and B are diluted in 1:3 to 1:3.3 steps such that the average concentration contains the respective amount of substance A and substance B corresponding to the ED50.
(§2) Female MF 2 mice weighing 18 to 22 g are divided at random into groups (n=20) and infected intraperitoneally with a standardised bacteria suspension which, according to strain, represents 5 to >20 LD50.
(§3) Immediately after the infection, and 3 hours later, the mice are treated in groups subcutaneously with dilutions of substances A and B as well as with combinations thereof. These combinations are prepared shortly before administration by mixing each dilution of substance A with each dilution of substance B. The survival rates are determined on the fifth day after the infection. The survival rates of mice which are determined with each of substances A and B alone are compared with those obtained with the combinations of these substances. A combination which has protected more animals from death than would be expected from the independent action of the substances, is designated as having synergistic action.
(§4) The survival rates, expressed as percentages of surviving animals, found in infections with a number of pure micro-organisms and in polyinfections is reported in Table 2 for cefsulodin sodium, mecillinam, mezlocillin, gentamicin and CGP 14 221/E, as well as for corresponding mixtures.

In test [2] the test system is Escherichia coli 205 RTEM^+. In words: systemic infection in mice, survival, Escherichia coli 205 RTEM+. The class given is in vivo. The following applies: 1.2 mg/kg s.c., fifth day. How it is done:
as §1, §2, §3, §4

Test [3] has as its system Klebsiella pneumoniae 327. In words: systemic infection in mice, survival, Klebsiella pneumoniae 327. The class given is in vivo. The following applies: fifth day. How it is done: as §1, §2, §3, §4
Test [4] relates to Klebsiella pneumoniae 329 + Escherichia coli 205. In words: systemic polyinfection in mice, survival, Klebsiella pneumoniae 329 + Escherichia coli 205. The class given is in vivo. Particulars: 20 mg/kg s.c., fifth day. How it is done: as §1, §2, §3, §4
In test [5] the test system is Pseudomonas aeruginosa 799A. In words: in vitro MIC, chessboard microdilution, Pseudomonas aeruginosa 799A. The class given is cell-based. How it is done: (§5) The combination substances A and B are diluted in DST broth OXOID in chessboard arrangement with the aid of microtitre system in 1:2 steps. All the concentrations of substance A are combined with all the concentrations of substance B and then inoculated with a standardised bacteria suspension (final concentration about 10^4 bacilli/ml). After incubation for 18 hours at 37° C., the inhibition of the bacterial growth is determined. The inhibiting concentrations are converted by the method of Kerry et al. (J. Antimicrob. […] By way of example, a number of the MIC values for the action of cefsulodin sodium, mecillinam, mezlocillin and gentamicin alone against a number of micro-organisms, as well as the MIC values for a number of mixtures in which synergism occurs, are reported in Table 1.
In general terms: Dilution methods test growth across graded concentrations, often in twofold steps.

The subject of test [6] is Escherichia coli 12-44. Description: in vitro MIC, chessboard microdilution, Escherichia coli 12-44. The class given is cell-based. How it is done:
as §5

Test [7] deals with Kiebsiella pneumoniae 1132. In words: in vitro MIC, chessboard microdilution, Klebsiella pneumoniae 1132. The class given is cell-based. How it is done: as §5
Test [8] relates to Klebsiella pneumoniae 1136. In words: in vitro MIC, chessboard microdilution, Klebsiella pneumoniae 1136. The class given is cell-based. How it is done:
as §5

The subject of test [9] is Proteus rettgeri 1121. In words: in vitro MIC, chessboard microdilution, Proteus rettgeri 1121. The class given is cell-based. How it is done: as §5
In test [10] the test system is Klebsiella pneumoniae 329. In words: systemic infection in mice, survival, Klebsiella pneumoniae 329. The class given is in vivo. Particulars: fifth day. How it is done: as §1, §2, §3, §4
The subject of test [11] is Pseudomonas aeruginosa G 121. In words: in vitro MIC, chessboard microdilution, Pseudomonas aeruginosa G 121. The class given is cell-based. How it is done: as §5
Test [12] has as its system Staphylococcus aureus. Description: in vitro MIC, chessboard microdilution, Staphylococcus aureus. The class given is cell-based. How it is done:
as §5

Test [13] relates to Klebsiella pneumoniae 1. In words: in vitro MIC, chessboard microdilution, Klebsiella pneumoniae 1. The class given is cell-based. How it is done:
as §5

Test [14] deals with Proteus mirabilis 1077. Description: in vitro MIC, chessboard microdilution, Proteus mirabilis 1077. The class given is cell-based. How it is done: as §5
The conditions of test [15]: known β-lactamase inhibitors themselves; cited from earlier work.
Test [16] concerns Pseudomonas aeruginosa 410. In words: in vitro MIC, chessboard microdilution, Pseudomonas aeruginosa 410. The class given is cell-based. How it is done: as §5
Test [17] concerns Pseudomonas aeruginosa 1140. Description: in vitro MIC, chessboard microdilution, Pseudomonas aeruginosa 1140. The class given is cell-based. How it is done: as §5
The test system of test [18] is Escherichia coli 576. Description: in vitro MIC, chessboard microdilution, Escherichia coli 576. The class given is cell-based. How it is done:
as §5

The subject of test [19] is Pseudomonas aeruginosa + Escherichia coli. In words: experimental pyelonephritis (polyinfection) in mice, Pseudomonas aeruginosa + Escherichia coli. The class given is in vivo. The following applies: percentage of animals, 1 mg/kg s.c. How it is done:
(§6) Mice are treated intravenously with 10 mg/kg of carrageenin. Seven days later they are infected with a standardised suspension of bacteria. […] Two days after the last treatment, the mice are sacrificed, dissected and examined for the number of germs in the kidneys.

In test [20] the test system is Pseudomonas aeruginosa + Klebsiella pneumoniae. Description: experimental pyelonephritis (polyinfection) in mice, Pseudomonas aeruginosa + Klebsiella pneumoniae. The class given is in vivo. Particulars: percentage of animals. How it is done: as §6
Where [21] appears, read: in combination with Cefsulodin-Na 12.5 mcg/ml.

The values below come from patent US4263280A, “Synergistic mixtures” (priority 1978, dated 1981).

Counter-ions that a name gives are not always drawn.

With `CN(C)CCn1nnnc1SCC1=C(C(=O)O)N2C(=O)[C@@H](NC(=O)Cc3csc(N)n3)[C@H]2SC1` [CGP 14221/E, 7[2(2-lmino-1,3-thiazolin-4-yl)acetamido3-[1(3-dimethylamino)-tetrazol-5-ylthio-methyl3-cephem-4-carboxylic acid hydrochloride], the “surviving animals, antibiotic alone” value in test [1] (0.62 mg/kg s.c.) worked out at 0%; in test [1] (2.5 mg/kg s.c.) it was 0%; in test [2] it was 10%; in test [3] (20 mg/kg s.c.), 0%; in test [3] (40 mg/kg s.c.), 0%; in [4] it was 0%.

As usually defined, the MIC is the lowest concentration that inhibits growth of the organism. On to `CC1(C)S[C@@H]2[C@H](/N=C/N3CCCCCC3)C(=O)N2[C@H]1C(=O)O` [Mecillinam], for which the MIC in test [5] (Pseudomonas aeruginosa, 799A, alone, 18 hours, 37° C., read-out: MIC, antibiotic alone) came to 1000 µg/mL; in test [6] (Escherichia coli, 1244, alone, 18 hours, 37° C., read-out: MIC, antibiotic alone) it was 2 µg/mL; in test [7] (Klebsiella pneumoniae, 1132, alone, 18 hours, 37° C., read-out: MIC, antibiotic alone), 1 µg/mL; in test [8] (Klebsiella pneumoniae, 1136, alone, 18 hours, 37° C., read-out: MIC, antibiotic alone), 1 µg/mL; in test [9] (Providencia rettgeri, 1121, alone, 18 hours, 37° C., read-out: MIC, antibiotic alone) it was 3.2 µg/mL. In addition, the “MIC, antibiotic B in combination with A” value in [5] (in combination with Cefsulodin-Na 0.25 mcg/ml) amounted to 32 µg/mL; in test [6] (setting [21]), 0.12 µg/mL; in test [7] (in combination with Cefsulodin-Na 6.2 mcg/ml), 0.25 µg/mL; in test [8] (setting [21]) it was 0.25 µg/mL; in [9] (in combination with Cefsulodin-Na 0.4 mcg/ml) it was 1.6 µg/mL. Moreover, the “surviving animals, antibiotic alone” value in test [1] (1 mg/kg s.c.), in test [1] (2 mg/kg s.c.) and in test [10] (300 mg/kg s.c.) was 0% throughout.

With `CC1(C)S[C@@H]2[C@H](NC(=O)[C@H](NC(=O)N3CCN(S(C)(=O)=O)C3=O)c3ccccc3)C(=O)N2[C@H]1C(=O)O` [Mezlocillin], the MIC was 25 µg/mL in test [11] (Pseudomonas aeruginosa, G121, alone, 18 hours, 37° C., read-out: MIC, antibiotic alone); 3.2 µg/mL in test [12] (Staphylococcus aureus, alone, 18 hours, 37° C., read-out: MIC, antibiotic alone); 1.25 µg/mL in [13] (Klebsiella pneumoniae, 1, alone, 18 hours, 37° C., read-out: MIC, antibiotic alone); 1 µg/mL in [14] (Proteus mirabilis, 1077, alone, 18 hours, 37° C., read-out: MIC, antibiotic alone). For the same compound, the “MIC, antibiotic B in combination with A” value in test [11] (in combination with Cefsulodin-Na 0.04 mcg/ml) was 12.5 µg/mL; in [12] (in combination with Cefsulodin-Na 0.2 mcg/ml) it was 1.6 µg/mL; in test [13] (in combination with Cefsulodin-Na 25 mcg/ml), 0.16 µg/mL; in test [14] (setting [21]) it was 0.25 µg/mL. Besides, the “surviving animals, antibiotic alone” value in test [1] (50 mg/kg s.c.) and in [10] (300 mg/kg s.c.) was 0% in each case.

Take `O=C(O)[C@H]1/C(=C/CO)O[C@@H]2CC(=O)N21` [clavulanic acid]: the antibiotic action result in test [15] is given as “insignificant antibiotic action”.

For the compound `CC1(C)[C@H](C(=O)O)N2C(=O)C[C@H]2S1(=O)=O` [penicillanic acid 4,4-dioxide], the antibiotic action result in [15] is listed as “insignificant antibiotic action”.

Gentamicin: the “MIC, antibiotic alone” value was 1 µg/mL in [9] (alone, 18 hours, 37° C.); 0.5 µg/mL in [16] (alone, 18 hours, 37° C.); 32 µg/mL in test [17] (alone, 18 hours, 37° C.); 2 µg/mL in [18] (alone, 18 hours, 37° C.). Also, the “MIC, antibiotic B in combination with A” value in test [9] (in combination with Cefsulodin-Na 0.8 mcg/ml) came to 0.5 µg/mL; in [16] (in combination with Cefsulodin-Na 0.06 mcg/ml), 0.25 µg/mL; in test [17] (in combination with Cefsulodin-Na 2 mcg/ml), 4 µg/mL; in [18] (in combination with Cefsulodin-Na 32 mcg/ml) it was 0.25 µg/mL. Moreover, the “surviving animals, antibiotic alone” value in [10] (0.2 mg/kg s.c.) was 30%. Besides, the “Clearance of the kidneys from both micro-organisms, antibiotic alone” value was 0% in test [19], 0% in test [20] (0.5 mg/kg s.c.) and 40% in test [20] (2.5 mg/kg s.c.).
